From article PMC4661694, “Aminopeptidase T of M29 Family Acts as A Novel Intracellular Virulence Factor for Listeria monocytogenes Infection” (Scientific Reports, 2015)

Target: T1, Lmo1603 (Listeria monocytogenes, UniProt Q8Y6T0)
T1 construct: tag removal not mentioned
Test: p-nitroaniline release, absorbance […] nm
Assay type: biochemical
Settings: 50 mM Tris-HCl pH 8.5, 2 mM substrate, 5 uM enzyme, 12 h

T1 sequence (Q8Y6T0 entry or part of it): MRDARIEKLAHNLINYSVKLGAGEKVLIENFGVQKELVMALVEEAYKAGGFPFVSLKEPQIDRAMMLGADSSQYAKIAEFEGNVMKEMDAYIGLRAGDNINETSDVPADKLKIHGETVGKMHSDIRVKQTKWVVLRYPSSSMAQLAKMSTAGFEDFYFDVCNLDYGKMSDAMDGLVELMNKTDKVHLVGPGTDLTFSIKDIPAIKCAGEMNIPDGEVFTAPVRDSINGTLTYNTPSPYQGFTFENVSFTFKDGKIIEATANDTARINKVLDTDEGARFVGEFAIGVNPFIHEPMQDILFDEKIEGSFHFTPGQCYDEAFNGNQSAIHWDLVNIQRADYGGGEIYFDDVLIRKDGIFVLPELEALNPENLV

Row | Structure (SMILES) | p-nitroaniline release, absorbance 405 nm (cobalt-activated enzyme) | p-nitroaniline release, absorbance 405 nm
1 | N=C(N)NCCC[C@H](N)C(=O)Nc1ccc([N+](=O)[O-])cc1 [Arg-pNA] | Lmo1603 showed the highest activity towards Arg-pNA, followed by Leu-pNA and Ala-pNA | 
2 | CC(C)C[C@H](N)C(=O)Nc1ccc([N+](=O)[O-])cc1 [Leu-pNA] |  | Lmo1603 showed the highest activity towards Arg-pNA, followed by Leu-pNA and Ala-pNA
